According to patent publication US9085576B2 (AMGEN INC., priority 2013, dated 2015):

Columns and labels:
[1] = biological target: BACE (Homo sapiens (Human), UniProt P56817); experiment: In vitro BACE cell-based assay (Aβ40 in conditioned medium, sandwich ELISA)
[2] = biological target: Cathepsin D (Cat D) (Homo sapiens (Human), UniProt P07339); experiment: In vitro enzymatic Cathepsin D (Cat D) FRET assay; type: biochemical; settings: read-out: CatD IC50
[3] = biological target: Beta Secretase enzyme (BACE) (Homo sapiens (Human), UniProt P56817); experiment: In vitro enzymatic BACE FRET assay; type: biochemical; settings: read-out: BACE1 Enzyme assay IC50
Sequence of Beta Secretase enzyme (BACE) (P56817 46-501): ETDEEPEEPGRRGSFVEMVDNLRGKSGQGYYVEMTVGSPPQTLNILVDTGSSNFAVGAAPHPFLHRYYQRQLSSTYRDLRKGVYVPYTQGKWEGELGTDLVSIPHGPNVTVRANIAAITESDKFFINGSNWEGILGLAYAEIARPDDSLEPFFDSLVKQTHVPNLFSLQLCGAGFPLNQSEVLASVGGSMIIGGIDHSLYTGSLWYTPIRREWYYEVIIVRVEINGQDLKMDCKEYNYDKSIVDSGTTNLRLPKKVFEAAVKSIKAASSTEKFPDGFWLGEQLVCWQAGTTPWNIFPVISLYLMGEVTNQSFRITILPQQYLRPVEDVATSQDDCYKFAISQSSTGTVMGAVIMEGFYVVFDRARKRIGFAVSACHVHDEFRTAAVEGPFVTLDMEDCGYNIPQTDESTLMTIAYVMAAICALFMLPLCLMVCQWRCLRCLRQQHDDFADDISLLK

Sequence of BACE (P56817 46-501, species assumed): as the sequence (P56817 46-501) above
Sequence of Cathepsin D (Cat D) (P07339 65-412, species assumed): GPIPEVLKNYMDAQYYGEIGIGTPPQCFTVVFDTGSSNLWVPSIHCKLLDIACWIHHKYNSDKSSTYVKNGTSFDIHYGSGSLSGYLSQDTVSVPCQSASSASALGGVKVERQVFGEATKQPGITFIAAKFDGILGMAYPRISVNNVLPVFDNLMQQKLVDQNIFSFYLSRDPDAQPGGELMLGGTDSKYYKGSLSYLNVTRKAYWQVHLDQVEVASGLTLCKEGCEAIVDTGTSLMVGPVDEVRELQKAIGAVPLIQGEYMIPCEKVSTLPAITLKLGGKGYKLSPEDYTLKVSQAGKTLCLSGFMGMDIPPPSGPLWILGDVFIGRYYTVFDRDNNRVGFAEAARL

Row | SMILES | IC50 [1] [µM] | IC50 [2] [µM] | IC50 [3] [µM]
1 | N#Cc1ccc(C(=O)Nc2cc(Cl)c(F)c([C@@]3(CF)N=C(N)O[C@@H]4C[C@@H]43)c2)nc1 [Example 88, N-(3-((1R,5S,6R)-3-amino-5-(fluoromethyl)-2-oxa-4-azabicyclo[4.1.0]hept-3-en-5-yl)-5-chloro-4-fluorophenyl)-5-cyanopicolinamide] | 0.0098 | 302 | 0.0294
2 | COC[C@H](C)NC(=O)c1ccc(F)c([C@@]2(C(F)F)N=C(N)O[C@@H]3C[C@@H]32)c1 [Example 428, 3-((1R,5S,6R)-3-Amino-5-(difluoromethyl)-2-oxa-4-azabicyclo[4.1.0]hept-3-en-5-yl)-4-fluoro-N—((S)-1-methoxypropan-2-yl)benzamide] | > 15.6 | 1520 | > 40
3 | CN(C)c1cc(C#N)cnc1C(=O)Nc1ccc(F)c([C@@]2(C(F)F)N=C(N)O[C@@H]3C[C@@H]32)c1 [Example 389, N-(3-((1R,5S,6R)-3-amino-5-(difluoromethyl)-2-oxa-4-azabicyclo[4.1.0]hept-3-en-5-yl)-4-fluorophenyl)-5-cyano-3-(dimethylamino)picolinamide] | 0.0747 | 732 | 0.0915
4 | N#Cc1cnc2c(Nc3ccc(Cl)c([C@@]4(CF)N=C(N)O[C@@H]5C[C@@H]54)c3)ncc(F)c2c1 [Example 363, 8-((3-((1R,5S,6R)-3-amino-5-(fluoromethyl)-2-oxa-4-azabicyclo[4.1.0]hept-3-en-5-yl)-4-chlorophenyl)amino)-5-fluoro-1,7-naphthyridine-3-carbonitrile] | 0.13 | > 44.4 | 0.0682
5 | CC#Cc1cncc(-c2ccc(F)c([C@@]3(C(F)F)N=C(N)O[C@@H]4C[C@@H]43)c2)c1 [Example 429, (1R,5S,6R)-5-(difluoromethyl)-5-(2-fluoro-5-(5-(prop-1-yn-1-yl)pyridin-3-yl)phenyl)-2-oxa-4-azabicyclo[4.1.0]hept-3-en-3-amine] | 3.36 | 72.9 | 1.05
6 | Cc1cc(C(F)(F)F)cnc1C(=O)Nc1ccc(F)c([C@@]2(C(F)F)N=C(N)O[C@@H]3C[C@@H]32)c1 [Example 188, N-(3-((1R,5S,6R)-3-amino-5-(difluoromethyl)-2-oxa-4-azabicyclo[4.1.0]hept-3-en-5-yl)-4-fluorophenyl)-3-methyl-5-(trifluoromethyl) picolinamide] | 0.0279 | 159 | 0.04
7 | NC1=N[C@@](c2cc(NC(=O)c3cnc(OCC4CCCC4)cn3)ccc2F)(C(F)F)[C@H]2C[C@H]2O1 [Example 418, N-(3-((1R,5S,6R)-3-amino-5-(difluoromethyl)-2-oxa-4-azabicyclo[4.1.0]hept-3-en-5-yl)-4-fluorophenyl)-5-(cyclopentylmethoxy)pyrazine-2-carboxamide] | 0.916 | 891 | 0.0261
8 | NC1=N[C@@](c2cc(Nc3ncnc4cc(Cl)cnc34)ccc2F)(C(F)F)[C@H]2C[C@H]2O1 [Example 353, (1R,5S,6R)-5-(5-((7-chloropyrido[3,2-d]pyrimidin-4-yl)amino)-2-fluorophenyl)-5-(difluoromethyl)-2-oxa-4-azabicyclo[4.1.0]hept-3-en-3-amine] | 0.0503 | 141 | 0.0639
9 | CC(C)Oc1cnc2c(Nc3cc(Cl)c(F)c([C@@]4(CF)N=C(N)O[C@@H]5C[C@@H]54)c3)nccc2n1 [Example 357, (1R,5S,6R)-5-(3-chloro-2-fluoro-5-((2-isopropoxypyrido[3,4-b]pyrazin-5-yl)amino)phenyl)-5-(fluoromethyl)-2-oxa-4-azabicyclo[4.1.0]hept-3-en-3-amine] | 0.918 | 323 | 0.375
10 | C[C@H](C#N)Oc1ccc(C(=O)Nc2ccc(F)c([C@@]3(C(F)F)N=C(N)O[C@@H]4C[C@@H]43)c2)nc1 (mixture of isomers) [Example 259] | 0.473 | 668 | 0.659
11 | COc1cnc(C(=O)Nc2cc(F)c(F)c([C@]3(CF)N=C(N)O[C@H]4C[C@H]43)c2)cn1 [Example 144, N-(3-((1S,5R,6S)-3-amino-5-(fluoromethyl)-2-oxa-4-azabicyclo[4.1.0]hept-3-en-5-yl)-4,5-difluorophenyl)-5-methoxypyrazine-2-carboxamide] | 4.62 | 1340 | > 40
12 | Cc1cc(OCC(F)(F)F)cnc1C(=O)Nc1ccc(F)c([C@@]2(C(F)F)N=C(N)O[C@@H]3C[C@@H]32)c1 [Example 189, N-(3-((1R,5S,6R)-3-amino-5-(difluoromethyl)-2-oxa-4-azabicyclo[4.1.0]hept-3-en-5-yl)-4-fluorophenyl)-3-methyl-5-(2,2,2-trifluoroethoxy) picolinamide] | 0.386 | 770 | 0.12

Results, then the compound that gave them:

Row | IC50 [1] [µM] | IC50 [2] [µM] | IC50 [3] [µM] | SMILES
13 | 2.67 | 102 | 11.2 | NC1=N[C@@](c2cc(NC[C@@H]3C[C@H]3c3ccccc3)ccc2F)(C(F)F)[C@H]2C[C@H]2O1 [Example 371, (1R,5S,6R)-5-(difluoromethyl)-5-(2-fluoro-5-((((l(S,R),2(S,R))-2-phenylcyclopropyl)methyl)amino)phenyl)-2-oxa-4-azabicyclo[4.1.0]hept-3-en-3-amine]
14 | > 15.6 | > 400 | > 40 | COc1ccc(C(=O)Nc2ccc(F)c([C@]3(CF)N=C(N)O[C@H]4C[C@H]43)c2F)nc1 [Example 78, N-(3-((1S,5R,6S)-3-amino-5-(fluoromethyl)-2-oxa-4-azabicyclo[4.1.0]hept-3-en-5-yl)-2,4-difluorophenyl)-5-methoxypicolinamide]
15 | > 15.6 | 1910 | > 40 | NC1=N[C@@](c2cc(NC(=O)C3CCOCC3)ccc2F)(C(F)F)[C@H]2C[C@H]2O1 [Example 242]
16 | 0.0449 | > 1.65 | 0.0918 | NC1=N[C@@](c2cc(NC(=O)c3ccc(OCF)cn3)ccc2F)(C(F)F)[C@H]2C[C@H]2O1 [Example 180, N-(3-((1R,5S,6R)-3-amino-5-(difluoromethyl)-2-oxa-4-azabicyclo[4.1.0]hept-3-en-5-yl)-4-fluorophenyl)-5-(fluoromethoxy) picolinamide]
17 | 0.0314 | 541 | 0.0184 | Cc1cc(C#N)cnc1C(=O)Nc1ccc(Cl)c([C@@]2(C(F)F)N=C(N)O[C@@H]3C[C@@H]32)c1 [Example 223, N-(3-((1R,5S,6R)-3-amino-5-(difluoromethyl)-2-oxa-4-azabicyclo[4.1.0]hept-3-en-5-yl)-4-chlorophenyl)-5-cyano-3-methylpicolinamide]
18 | 0.0543 | 282 | 0.0713 | NC1=N[C@](CF)(c2cc(Nc3nccc4cc(Cl)cnc34)ccc2F)[C@H]2C[C@H]2O1 [Example 345, (1R,5S,6R)-5-(5-((3-chloro-1,7-naphthyridin-8-yl)amino)-2-fluorophenyl)-5-(fluoromethyl)-2-oxa-4-azabicyclo[4.1.0]hept-3-en-3-amine]
19 | 0.109 | 515 | 0.24 | Cn1nc(C(F)F)cc1C(=O)Nc1ccc(F)c([C@@]2(C(F)F)N=C(N)O[C@@H]3C[C@@H]32)c1 [Example 154, N-(3-((1R,5S,6R)-3-amino-5-(difluoromethyl)-2-oxa-4-azabicyclo[4.1.0]hept-3-en-5-yl)-4-fluorophenyl)-3-(difluoromethyl)-1-methyl-1H-pyrazole-5-carboxamide]
